This note sets out measurements from the supplement of paper PMC10307832.

Experiment in all cases: relative viability (nuclei count vs DMSO), 5 days (fraction); higher = more cells survive
Compound in assay [1]: C=C(c1ccc(C(=O)O)cc1)c1cc2c(cc1C)C(C)(C)CCC2(C)C [Bexarotene] + Cc1cc(Nc2cc(N3CCN(C)CC3)nc(Sc3ccc(NC(=O)C4CC4)cc3)n2)n[nH]1 [Tozasertib] (partner 0.1 µM)
The essentials: (§1)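 Dosing by pin tool came one day after lung cancer cell lines were seeded in 1536-well plates, using either one drug or a fixed anchor-drug dose plus five library-drug doses (not always all listed) in √10 steps. After 5 days, nuclei were counted on 4× images. Relative viability is treated-well nuclei count divided by vehicle-well nuclei count, and values are medians of duplicate plates.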

Compound in assay [2]: C=C(c1ccc(C(=O)O)cc1)c1cc2c(cc1C)C(C)(C)CCC2(C)C [Bexarotene] + COc1cccc2cc(-c3nc([C@H]4CC[C@H](C(=O)O)CC4)n4ncnc(N)c34)[nH]c12 [OSI-027] (partner 0.5 µM)
Summed up: as §1

Compound in assay [3]: C=C(c1ccc(C(=O)O)cc1)c1cc2c(cc1C)C(C)(C)CCC2(C)C [Bexarotene] + C[C@]1(O)C[C@@H](c2nc(-c3ccc4ccc(-c5ccccc5)nc4c3)c3c(N)nccn32)C1 [Linsitinib] (partner 1 µM)
Summed up:
as §1

Compound in assay [4]: C=C(c1ccc(C(=O)O)cc1)c1cc2c(cc1C)C(C)(C)CCC2(C)C [Bexarotene] + C[C@@H](Oc1cc(-c2cnn(C3CCNCC3)c2)cnc1N)c1c(Cl)ccc(F)c1Cl [Crizotinib] (partner 1 µM)
Summed up: as §1

Turning to NCI-H1755, the relative viability in assay [1] (first compound 0.08 µM) was determined as 0.624; in assay [1] (first compound 0.253 µM), 0.607; in assay [1] (first compound 0.8 µM) it was 0.637; in assay [1] (first compound 2.53 µM), 0.638; in assay [1] (first compound 8 µM), 0.622; in assay [2] (first compound 0.08 µM), 0.777. Further, the relative viability in assay [2] (first compound 0.253 µM) worked out at 0.741; in assay [2] (first compound 0.8 µM) it was 0.675; in assay [2] (first compound 2.53 µM) it was 0.637; in assay [2] (first compound 8 µM), 0.611; in assay [3] (first compound 0.08 µM) it was 1.05; in assay [3] (first compound 0.253 µM), 1.1. Moreover, the relative viability in assay [3] (first compound 0.8 µM) is 1.08; in assay [3] (first compound 2.53 µM), 0.992; in assay [3] (first compound 8 µM), 1.02; in assay [4] (first compound 0.08 µM), 0.85; in assay [4] (first compound 0.253 µM), 1.09; in assay [4] (first compound 0.8 µM), 0.971. The results for the relative viability in assay [4] (first compound 2.53 µM) and in assay [4] (first compound 8 µM) were 0.848 and 0.802, respectively.

For the cell line NCI-H2228, the relative viability in assay [1] (first compound 0.08 µM) was 0.241; in assay [1] (first compound 0.253 µM), 0.262; in assay [1] (first compound 0.8 µM) it was 0.226; in assay [1] (first compound 2.53 µM) it was 0.205; in assay [1] (first compound 8 µM), 0.229; in assay [2] (first compound 0.08 µM) it was 0.848. In addition, the relative viability in assay [2] (first compound 0.253 µM) was found to be 0.639; in assay [2] (first compound 0.8 µM), 0.359; in assay [2] (first compound 2.53 µM), 0.568; in assay [2] (first compound 8 µM), 0.477; in assay [3] (first compound 0.08 µM), 0.905; in assay [3] (first compound 0.253 µM), 0.818. Also, the relative viability in assay [3] (first compound 0.8 µM) is 0.586; in assay [3] (first compound 2.53 µM), 0.656; in assay [3] (first compound 8 µM), 0.749; in assay [4] (first compound 0.08 µM), 0.512; in assay [4] (first compound 0.253 µM) it was 0.462; in assay [4] (first compound 0.8 µM), 0.374. For the same cell line, the relative viability was found to be 0.356 in assay [4] (first compound 2.53 µM) and 0.458 in assay [4] (first compound 8 µM).

In the case of NCI-H2087, the relative viability stood at 0.254 in assay [1] (first compound 0.08 µM); 0.314 in assay [1] (first compound 0.253 µM); 0.211 in assay [1] (first compound 0.8 µM); 0.179 in assay [1] (first compound 2.53 µM); 0.258 in assay [1] (first compound 8 µM); 0.643 in assay [2] (first compound 0.08 µM). In addition, the relative viability was 0.693 in assay [2] (first compound 0.253 µM); 0.663 in assay [2] (first compound 0.8 µM); 0.565 in assay [2] (first compound 2.53 µM); 0.448 in assay [2] (first compound 8 µM); 1.01 in assay [3] (first compound 0.08 µM); 0.963 in assay [3] (first compound 0.253 µM). Moreover, the relative viability came to 0.89 in assay [3] (first compound 0.8 µM); 0.896 in assay [3] (first compound 2.53 µM); 0.827 in assay [3] (first compound 8 µM); 0.854 in assay [4] (first compound 0.08 µM); 1.14 in assay [4] (first compound 0.253 µM); 0.716 in assay [4] (first compound 0.8 µM). The relative viability in assay [4] (first compound 2.53 µM) worked out at 0.827; in assay [4] (first compound 8 µM) it was 0.867.

On to LU99A, for which the relative viability in assay [1] (first compound 0.08 µM) is 0.291; in assay [1] (first compound 0.253 µM), 0.252; in assay [1] (first compound 0.8 µM), 0.296; in assay [1] (first compound 2.53 µM), 0.234; in assay [1] (first compound 8 µM), 0.284; in assay [2] (first compound 0.08 µM), 0.325. Moreover, the relative viability turned out to be 0.361 in assay [2] (first compound 0.253 µM); 0.286 in assay [2] (first compound 0.8 µM); 0.316 in assay [2] (first compound 2.53 µM); 0.315 in assay [2] (first compound 8 µM); 0.616 in assay [3] (first compound 0.08 µM); 0.504 in assay [3] (first compound 0.253 µM). Besides, the relative viability came to 0.477 in assay [3] (first compound 0.8 µM); 0.518 in assay [3] (first compound 2.53 µM); 0.653 in assay [3] (first compound 8 µM); 0.495 in assay [4] (first compound 0.08 µM); 0.634 in assay [4] (first compound 0.253 µM); 0.573 in assay [4] (first compound 0.8 µM). Also, the figures for the relative viability in assay [4] (first compound 2.53 µM) and in assay [4] (first compound 8 µM) were 0.524 and 0.542, respectively.

Consider NCI-H1355, for which the relative viability in assay [1] (first compound 0.08 µM) was 0.492; in assay [1] (first compound 0.253 µM), 0.531; in assay [1] (first compound 0.8 µM) it was 0.54; in assay [1] (first compound 2.53 µM), 0.492; in assay [1] (first compound 8 µM) it was 0.512; in assay [2] (first compound 0.08 µM) it was 0.41. The relative viability in assay [2] (first compound 0.253 µM) stood at 0.426; in assay [2] (first compound 0.8 µM), 0.37; in assay [2] (first compound 2.53 µM) it was 0.387; in assay [2] (first compound 8 µM), 0.462; in assay [3] (first compound 0.08 µM), 1.02; in assay [3] (first compound 0.253 µM), 0.945. The relative viability in assay [3] (first compound 0.8 µM) was determined as 0.801; in assay [3] (first compound 2.53 µM) it was 0.923; in assay [3] (first compound 8 µM), 0.764; in assay [4] (first compound 0.08 µM) it was 1.14; in assay [4] (first compound 0.253 µM) it was 1.11; in assay [4] (first compound 0.8 µM), 1.03. Also, the relative viability in assay [4] (first compound 2.53 µM) is 1.14; in assay [4] (first compound 8 µM) it was 1.13.

Consider NCI-H520, for which the relative viability in assay [1] (first compound 0.08 µM) turned out to be 0.409; in assay [1] (first compound 0.253 µM), 0.454; in assay [1] (first compound 0.8 µM), 0.411; in assay [1] (first compound 2.53 µM), 0.417; in assay [1] (first compound 8 µM), 0.382; in assay [2] (first compound 0.08 µM), 0.238. For the same cell line, the relative viability in assay [2] (first compound 0.253 µM) was 0.207; in assay [2] (first compound 0.8 µM), 0.276; in assay [2] (first compound 2.53 µM), 0.222; in assay [2] (first compound 8 µM), 0.241; in assay [3] (first compound 0.08 µM), 1.02; in assay [3] (first compound 0.253 µM), 0.951. Also, the relative viability in assay [3] (first compound 0.8 µM) worked out at 0.79; in assay [3] (first compound 2.53 µM) it was 0.976; in assay [3] (first compound 8 µM) it was 0.88; in assay [4] (first compound 0.08 µM) it was 0.989; in assay [4] (first compound 0.253 µM), 0.735; in assay [4] (first compound 0.8 µM), 0.649. Further, the relative viability was 0.775 in assay [4] (first compound 2.53 µM) and 0.659 in assay [4] (first compound 8 µM).

NCI-H661: the relative viability amounted to 0.387 in assay [1] (first compound 0.08 µM); 0.357 in assay [1] (first compound 0.253 µM); 0.348 in assay [1] (first compound 0.8 µM); 0.355 in assay [1] (first compound 2.53 µM); 0.341 in assay [1] (first compound 8 µM); 0.631 in assay [2] (first compound 0.08 µM). Further, the relative viability came to 0.665 in assay [2] (first compound 0.253 µM); 0.647 in assay [2] (first compound 0.8 µM); 0.623 in assay [2] (first compound 2.53 µM); 0.635 in assay [2] (first compound 8 µM); 0.533 in assay [3] (first compound 0.08 µM); 0.611 in assay [3] (first compound 0.253 µM). Besides, the relative viability in assay [3] (first compound 0.8 µM) was 0.437; in assay [3] (first compound 2.53 µM), 0.587; in assay [3] (first compound 8 µM) it was 0.549; in assay [4] (first compound 0.08 µM) it was 0.866; in assay [4] (first compound 0.253 µM) it was 1.13; in assay [4] (first compound 0.8 µM) it was 1.02. Further, the relative viability came to 0.96 in assay [4] (first compound 2.53 µM) and 1.04 in assay [4] (first compound 8 µM).
